The subject of assay [1] is rat cortical neuronal cultures. As to the kind of experiment: Neuronal cell death by Hoechst DNA staining, rat cortical neuron cultures. The format is cell-based. How it is done: Neurons were subjected to staining with Hoechst 33342 dye for 15 minutes, washed extensively with PBS, and analyzed using fluorescent microscopy to assess nuclear damage. Imaging was performed with a Zeiss Axiovert 200M fluorescence microscope with attached AxioCam CCD camera using 20× objective lens (Carl Zeiss, Thomwood, N.Y.). To quantitatively assess the percentage of pyknotic nuclei a total of 1000 cells were counted for each set of experiments. Mean±SEM (n=3) were used for statistical comparison using ANOVA (Bonferroni's multiple comparison test). Differences were considered significant when p<0.05.
[…] Glutamate treated cells were then maintained in their original medium for another 17 hours. For some experiments, neurons were treated with L-homocysteine or glutamate in the presence of NVP-AAM077 or PD98059. The neurons were then fixed and stained with Hoechst 33342 dye as previously described (Poddar and Paul, 2009, J Neurochem 110:1095-1106). Percentage of pyknotic nuclei was quantitatively assessed by fluorescent microscopy to determine the extent of neuronal death.

Assay [2] has as its system MCP-1. As to the kind of experiment: MCP-1 expression and release from neuron cultures (enzyme immunoassay). Type of assay: cell-based. How it is done:
For measurement of cPLA2 activity and MCP-1 levels in cell lysates, neuronal lysates were prepared by harvesting neurons in ice-cold Tris-buffered saline (pH 7.4) containing phosphatase inhibitor, sonicated three times in five-second bursts and placed on ice (two minutes) between each burst of sonication. The lysed cell suspensions were centrifuged at 10,000 rpm (10 minutes) and the supernatant was collected in another tube. Equal amounts of protein from the supernatant were processed for cPLA2 activity assay according to the manufacturer's protocol. Equal protein from the lysates were also used to estimate MCP-1 levels using an MCP-1 ELISA kit.
For measurement of PGE2 levels and MCP-1 levels released from neurons, culture medium was collected from each experimental plate and centrifuged at 1000 rpm for five minutes to remove cellular debris. Equal volume (100 μl) of the supernatant from each sample was used to determine PGE2 level using the PGE2 ELISA kit according to the manufacturer's instructions.

The subject of assay [3] is control and hyperhomocysteinemic rats subjected to MCAO. The assay can be described thus: MCAO (60 min) and reperfusion; infarct size and structural integrity by MRI (T2, ADC, FA maps). The format is in vivo, male Wistar rats. The settings on record: for total infarct volume (T2 maps): 24 hours after MCAO. How it is done:
Middle cerebral artery occlusion (MCAO) was performed on both male rats and mice. For rat studies, control and hyperhomocysteinemic male Wistar rats (8-9 weeks, 290-295 g) were subjected to MCAO under anesthesia (2% isoflurane in medical grade oxygen), using the intraluminal method as previously described (Candelario-Jalil, E., et al., 2004, Brain Res 1007:98-108; Deb et al., 2013, J Neurosci 33:17814-17826). Briefly, the right common carotid artery (CCA) was exposed through an incision made in the ventral midline neck region. To prevent improper insertion of the occluding filament, both the external carotid artery and pterygopalatine branch of the internal carotid artery were clipped. A silicon-rubber-coated monofilament (403756, Doccol Corp., Sharon, Mass.) was inserted into the internal carotid artery through an incision made in the CCA, 2 mm proximal from the bifurcation of the CCA, and advanced 18-19 mm from the bifurcation, to occlude the origin of the anterior cerebral, middle cerebral, and posterior communicating arteries. The incision was closed and the rats were allowed to recover from anesthesia. A quick assessment of neurological deficit was done immediately prior to reperfusion and only those animals that had more than 50% of contralateral forelimb flexion and walked in circles to the contralateral side were considered for the study, as previously described (Longa et al., 1989, Stroke 20:84-91). Following 60 minutes of occlusion, the rats were anesthetized and the filament was gently retracted to allow reperfusion. The incision was closed and the rats were allowed to recover from anesthesia. A subset of control and hyperhomocysteinemic rats received a single intravenous injection of GluN2A-NMDAR selective inhibitor NVP-AAM077 (1.2 mg/kg body weight) through the femoral vein, and another subset received a single intraperitoneal injection of GluN2B-NMDAR inhibitor Ro 256981 (6 mg/kg body weight), as previously described (Chaperon et al., 2003, Behav Pharmacol 14:477-87; Fox et al., 2006, Hippocampus 16:907-015). Both NVP-AAM077 and Ro 256981 were administered at the onset of ischemic insult. The rats were then subjected to MRI on days 1, 3, and 14 post-MCAO and a series of behavioral tests was performed between days 7-9 post-MCAO.
Multimodal MRI of rat brain that includes relaxation time imaging and diffusion imaging was performed at 1, 3 and 14 days after MCAO and reperfusion. The rats were placed in a dedicated holder and positioned in the isocenter of a 4.7-Tesla MRI scanner (Bruker Biospin) that is equipped with a 40-cm bore and a gradient of 660 mT/m at rise time within […]. To obtain good signal-to-noise ratio, a small-bore linear RF coil (inner diameter=72 mm) was used for signal excitation, and a single tuned surface coil (RAPID Biomedical, Rimpar, Germany) was used for signal detection (Sood et al., 2009, J Cereb Blood Flow Metab 29:308-316; Taheri, S. and Sood, R., 2007, Magn Reson Imaging 25:613-625; Yang et al., 2013 J Cereb Blood Flow Metab 33:1104-1114). For mice, the MRI was performed only at day 1. The mice were placed in its dedicated holder of inner diameter 72 mm in the 4.7-Tesla MRI scanner with a 40-cm bore size and a gradient rise time/maximum speed of 9000 T/m/s. During MRI, the rats and mice were kept anesthetized with 2% isoflurane in medical grade oxygen. Respiration and heart rate were monitored continuously and body temperature was maintained at 37.0±0.5° C.
For rats, T2-weighted images were acquired with a rapid acquisition with relaxation enhancement (RARE) sequence of Repetition Time (TR)/Echo Time (TE)=5,000 ms/56 ms, Field of View (FOV)=4 cm×4 cm, slice thickness=1 mm, inter-slice distance=1.1 mm, number of slices=12, matrix=256×256 and number of average=3. For mice, T2 weighted images were acquired with a RARE sequence of Repetition Time/Echo Time=5,000 ms/56 ms, Field of View=4 cm×4 cm, slice thickness=1 mm, number of slices=12, matrix=256×256 and number of average=3. […]

[4] abbreviates: control rats, single injection at onset of ischemic insult (NVP-AAM077 1.2 mg/kg; Ro 256981 6 mg/kg), untreated control 18.65±2.89%.
Where [5] appears, read: hyperhomocysteinemic (HHcy) rats, single injection at onset of insult (NVP-AAM077 1.2 mg/kg; Ro 256981 6 mg/kg), untreated HHcy 37.41±2.33%.

Molecules are shown by their SMILES.

Consider `N[C@@H](CCS)C(=O)O` [L-homocysteine], for which the “number of apoptotic cells (pyknotic nuclei)” value in assay [1] (rat cortical neurons, L-homocysteine 50 μM, 24 hours, alone vs untreated controls) was “significant increase in the number of apoptotic cells”. The “cell death (pyknotic nuclei)” value in assay [1] (rat neurons, L-homocysteine 50 μM, 18 h, alone) was “significant increase in cell death”. Also, the “expression and release of MCP-1 from neurons” value in assay [2] (L-homocysteine 50 μM, 0, two and four hours, alone) was “progressive increase in expression and release”.
Turning to `C[C@H](NC(c1cccc2[nH]c(=O)c(=O)[nH]c12)P(=O)(O)O)c1ccc(Br)cc1` (stereo partly drawn) [NVP-AAM077, ({[(1S)-1-(4-bromophenyl)ethyl]amino}-(2,3-dioxo-1,4-dihydroquinoxalin-5-yl)methyl)phosphonic acid], the “effect on homocysteine-induced apoptotic cells” value in assay [1] (rat cortical neurons, L-homocysteine 50 μM 24 hours, NVP-AAM077 30 nM) was “significantly reduced the number of apoptotic cells”. The “effect on homocysteine-induced neuronal death” value in assay [1] (rat neurons, L-homocysteine 50 μM 18 hours, with NVP-AAM077 30 nM or PD98059 15 μM) is listed as “Significantly Reduces Homocysteine-Induced Neuronal Death”. Further, the “lesion volume (T2 maps)” value in assay [3] (HHcy rats, day 3 after MCAO, NVP-AAM077 1.2 mg/kg, untreated HHcy 38.63±2.75%) is 19.61±4.48%; in assay [3] (HHcy rats, day 14 after MCAO, NVP-AAM077 1.2 mg/kg, untreated HHcy 27.16±2.18%), 10.76±2.40%. The “FA value in the infarcted area” value in assay [3] (HHcy rats, day 14 after MCAO, NVP-AAM077 1.2 mg/kg, untreated HHcy 0.25±0.01) was found to be 0.32±0.01. Moreover, the “total infarct volume (T2 maps)” value in assay [3] (setting [4]) was determined as 16.07±2.8%; in assay [3] (setting [5]), 17.98±3.24%. Besides, in assay [2] (L-homocysteine 50 μM four hours, with DL-AP5 200 μM or NVP-AAM077 30 nM), the “effect on homocysteine-induced expression and release of MCP-1” value is “attenuates the expression and release of MCP-1”.
For the molecule `C[C@@H](CN1CCC(Cc2ccccc2)CC1)[C@@H](O)c1ccc(O)cc1` [Ro 25-6981], the “total infarct volume (T2 maps)” value in assay [3] (setting [4]) worked out at 7.46±1.24%; in assay [3] (setting [5]) it was 32.48±4.32%.

The values are drawn from US11541065B2, “Compositions and methods for treating brain injury” (UNM RAINFOREST INNOVATIONS, priority 2018, dated 2023).
